The values below come from paper PMC10779987, “Machine-Learning- and Structure-Based Virtual Screening for Selecting Cinnamic Acid Derivatives as Leishmania major DHFR-TS Inhibitors” (Molecules, 2023).

Data set [1] deals with T1, LmDHFR-TS (Leishmania major, UniProt P07382).
T1 construct: made in house
The experiment in a line: LmDHFR-TS enzymatic inhibition assay (spectrophotometric standard DHFR assay). The class given is biochemical. The conditions noted are these: for SI (selectivity index): HsDHFR versus LmDHFR-TS. As to the method:
The determination of IC50 values involved analyzing concentration-response curves within the 0.1–128 μM range, employing spectrophotometric monitoring of enzymatic activity in a standard DHFR assay.
(§1) Purification and kinetic characterization of the recombinant LmDHFR-TS protein were performed according to the previously reported procedures, while HsDHFR protein was obtained from the commercial assay kit (CS0340, Merck KGaA, Darmstadt, Germany). […] These tested compounds were available from our in-house compound library.
(§2) The assay was conducted with either LmDHFR-TS or HsDHFR (2.7 nM), bovine serum albumin (BSA, 1 mg/mL), N-[tris(hydroxymethyl)-methyl]-2-aminoethanesulfonic acid (TES) buffer (100 mM, pH 7.0, 150 mM β-mercaptoethanol, 2 mM ethylenediaminetetraacetic acid (EDTA)), and nicotinamide adenine dinucleotide phosphate (NADPH, 100 μM), along with varying concentrations of the test compounds (0.1–128 μM). The reaction was initiated by adding the substrate (7,8-dihydrofolate (H2F), 20 μM) and monitored for 360 s at 340 nm, measuring the oxidation of NADPH to NADP+. This allowed the determination of the initial reaction rate (Vo) through linear regression analysis of the resulting absorbance profile.

Data set [2] has as its target T2, HsDHFR (Homo sapiens, UniProt P00374).
T2 construct: purchased Merck KGaA CS0340
T2 sequence (P00374 1-187): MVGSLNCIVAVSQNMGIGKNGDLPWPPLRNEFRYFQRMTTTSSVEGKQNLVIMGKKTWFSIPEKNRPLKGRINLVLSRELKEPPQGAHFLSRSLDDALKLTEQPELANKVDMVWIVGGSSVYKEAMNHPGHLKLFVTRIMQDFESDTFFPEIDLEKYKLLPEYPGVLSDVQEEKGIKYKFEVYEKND
The experiment in a line: HsDHFR enzymatic inhibition assay (spectrophotometric standard DHFR assay). The data set is classed as biochemical. The protocol: Following this, we calculated the selectivity index (SI) based on the results obtained from in vitro tests using the recombinant protein of Homo sapiens (Hs) DHFR.
as §1, §2

In data set [3] the test system is Leishmania amastigotes. Details: method as in earlier work. The conditions noted are these: ref 24 (Gouri et al.); read-out: IC50 against Leishmania amastigotes; cited from earlier work.
In data set [4] the test system is HepG2. As to conditions: read-out: IC50 cytotoxic activity, HepG2; HepG2 cell line; cited from earlier work.
Data set [5] has as its system BEL-7402. As to conditions: read-out: IC50 cytotoxic activity, BEL-7402; BEL-7402 cell line; cited from earlier work.
The test system of data set [6] is TNBC cells. The conditions noted are these: read-out: IC50, TNBC cells in vitro; FAK inhibitor; proliferation, invasion, migration; cited from earlier work.
The mark [7] stands for this setting: HsDHFR 2.7 nM, 0.1–128 μM test range, triplicate, read-out: HsDHFR IC50.
Setting [8] is: recombinant LmDHFR-TS 2.7 nM, 0.1–128 μM test range, triplicate.

The term pIC50 denotes the IC50 on a negative log10 scale, so that one unit is a factor of ten.

pIC50: −log10 of the molar value. Read-outs that look alike come from different tables or passages of the source.

T1 sequence (P07382 whole entry): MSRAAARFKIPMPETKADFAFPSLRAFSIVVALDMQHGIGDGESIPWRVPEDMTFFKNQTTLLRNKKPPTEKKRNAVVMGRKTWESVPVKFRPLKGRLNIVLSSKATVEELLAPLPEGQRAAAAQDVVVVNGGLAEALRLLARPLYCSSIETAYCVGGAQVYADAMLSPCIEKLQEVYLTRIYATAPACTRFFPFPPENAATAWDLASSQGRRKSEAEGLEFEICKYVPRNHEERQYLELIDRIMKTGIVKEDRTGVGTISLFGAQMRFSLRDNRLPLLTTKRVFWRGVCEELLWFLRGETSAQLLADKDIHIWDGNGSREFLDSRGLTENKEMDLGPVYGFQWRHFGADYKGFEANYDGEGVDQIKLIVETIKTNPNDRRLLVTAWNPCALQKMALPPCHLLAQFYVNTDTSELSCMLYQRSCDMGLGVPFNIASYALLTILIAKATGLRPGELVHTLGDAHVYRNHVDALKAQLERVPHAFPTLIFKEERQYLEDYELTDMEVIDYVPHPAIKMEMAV

As to `O=C(/C=C/c1ccc(O)c2c1[C@H](C(=O)O)[C@@H](c1ccc(O)c(O)c1)O2)O[C@H](Cc1ccc(O)c(O)c1)C(=O)O` [Compound 237, lithospermic acid], the pIC50 is 5.12 in data set [1] and 4.65 in data set [2] (setting [7]).
As for `O=c1cc(-c2ccccc2)oc2cc(O)cc(O)c12` [Compound 69, chrysin], the pIC50 in data set [3] is 4.89.
Turning to `COc1ccc(C[C@H]2COC(=O)[C@@H]2Cc2cc(OC)c(O)c(-c3cc(C[C@H]4C(=O)OC[C@@H]4Cc4ccc(OC)c(OC)c4)cc(OC)c3O)c2)cc1OC` [Compound 306, diarctigenin], the pIC50 is 5.21 in data set [1] and 4.55 in data set [2] (setting [7]).
Take `COc1ccc([C@@H]2CC(=O)c3c(O)cc(O[C@@H]4O[C@H](CO[C@@H]5O[C@@H](C)[C@H](O)[C@@H](O)[C@H]5O)[C@@H](O)[C@H](O)[C@H]4O)cc3O2)cc1O` [Compound 140, hesperidin]: the pIC50 in data set [1] was 4.67; in data set [2], 4.06. For the same molecule, the “SI (selectivity index)” value in data set [1] is listed as 4.0. Moreover, the “LmDHFR-TS IC50” value in data set [1] (setting [8]) was “low activity”.
`O=C(O)/C=C/c1ccccc1` [cinnamic acid]: the pIC50 in data set [3] is 6.60.
As to `C[C@@H]1O[C@@H](OC[C@H]2O[C@@H](Oc3c(-c4ccc(O)c(O)c4)oc4cc(O)cc(O)c4c3=O)[C@H](O)[C@@H](O)[C@@H]2O)[C@H](O)[C@H](O)[C@H]1O` [rutin], in data set [1], the pIC50 was 4.38 and the “SI (selectivity index)” value was 4.5. In data set [1] (setting [8]), the “LmDHFR-TS IC50” value is recorded as “low activity”. In addition, in data set [2] (setting [7]), the pIC50 was 3.72.
Turning to `C[C@H]1CCC/C=C/[C@@H]2C[C@H](O)C[C@H]2[C@H](OC(=O)/C=C/c2ccc(N(C)C)cc2)/C=C/C(=O)O1` [brefeldin A 4-O-(4)-dimethylaminocinnamate], the pIC50 is 6.54 in data set [4] and 6.08 in data set [5].
As to `O=c1cc(-c2ccc(O[C@@H]3O[C@H](CO)[C@@H](O)[C@H](O)[C@H]3O)cc2)oc2cc(O)c([C@@H]3O[C@H](CO)[C@@H](O)[C@H](O)[C@H]3O)c(O)c12` [isovitexin 4′-O-glucoside], in data set [1], the “SI (selectivity index)” value is on record as 2.4. For the same molecule, the “LmDHFR-TS IC50” value in data set [1] (setting [8]) is listed as “low activity”. Further, the pIC50 in data set [1] (recombinant LmDHFR-TS 2.7 nM, 0.1–128 μM test range, triplicate, read-out: LmDHFR-TS IC50) is 4.27; in data set [2] (setting [7]), 3.90.
Regarding `O=c1cc(-c2ccc(O)c(O)c2)oc2cc(O)cc(O)c12` [luteolin], in data set [3], the pIC50 was 5.51.
On to `COc1cc(C[C@H]2COC(=O)[C@@H]2Cc2cc(OC)c3c(c2)[C@H](CO)[C@@H](c2ccc(O)c(OC)c2)O3)ccc1O` [Compound 308, isolappaol A], for which the pIC50 in data set [1] is 5.00; in data set [2] (setting [7]), 4.35.
With `CN(C)CCN(C(=O)/C=C/c1c[nH]c2ccccc12)c1ccccn1` [(E)-N-(2-(dimethylamino)ethyl)-3-(1H-indol-3-yl)-N-(pyridin-2-yl) acrylamide], in data set [6], the pIC50 was 5.08.
Turning to `C=CC(C)(C)c1cc(/C=C/C(=O)c2ccc(O)cc2)c(OC)cc1O` [licochalcone A], the pIC50 in data set [3] was 6.05.
Regarding `O=c1c(O)c(-c2ccc(O)c(O)c2)oc2cc(O)cc(O)c12` [quercetin], the pIC50 in data set [3] was 4.98.
